Results on eight molecules are retold here after PubChem BioAssay (NCI).

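Dose response: 5 concentrations. Exposure: 48 h. Format: 96-well plates. Endpoint: linear interpolation; highest concentration if not reached. GI50 is the concentration that inhibits growth by half. Definition used: TGI = concentration required for complete inhibition of growth.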 Where only a bound is given, the exact number is not on record here.

Test systems include DU-145 prostate; HCT-116 colon; HL-60(TB) leukemia; K-562 leukemia; NCI-H226 lung; NCI-H23 lung; PC-3 prostate; SR leukemia; UACC-257 melanoma; UACC-62 melanoma.
Assay in all cases: inhibition of tumour cell growth, NCI panel, 48 h

`COC(=O)c1c2c(c(C)[n+]([O-])c1C)C(=O)C=C(NCc1ccc(Br)cc1)C2=O`: the GI50 was 0.871 µM in the experiment with DU-145 prostate; 0.173 µM in the experiment with HCT-116 colon; 0.309 µM in the experiment with HL-60(TB) leukemia; 0.0472 µM with K-562 leukemia; 1.3 µM with NCI-H226 lung; 0.721 µM with NCI-H23 lung. The GI50 was 0.428 µM with PC-3 prostate, 1.7 µM in the experiment on SR leukemia, 0.229 µM in the experiment with UACC-257 melanoma and 0.0438 µM with UACC-62 melanoma. The TGI was 2.26 µM in the experiment on DU-145 prostate; 0.667 µM in the experiment on HCT-116 colon; 1.5 µM in the experiment on HL-60(TB) leukemia; above 100 µM with K-562 leukemia; 2.98 µM in the experiment on NCI-H226 lung; 3.32 µM in the experiment on NCI-H23 lung. For the same molecule, the TGI in the experiment on PC-3 prostate was 3.37 µM; in the experiment with SR leukemia it was above 100 µM; in the experiment on UACC-257 melanoma, 0.907 µM; in the experiment with UACC-62 melanoma, 1.09 µM.

With `O=[N+]([O-])c1ccc(Oc2cccc(C(F)(F)F)c2)c([N+](=O)[O-])c1`, the GI50 was 2.33 µM in the experiment with DU-145 prostate; 1.24 µM with HCT-116 colon; 1.7 µM in the experiment with HL-60(TB) leukemia; 0.303 µM with K-562 leukemia; 2.11 µM in the experiment on NCI-H226 lung; 2.15 µM with NCI-H23 lung. The GI50 in the experiment with PC-3 prostate is 4.2 µM; in the experiment on SR leukemia, 0.286 µM; in the experiment on UACC-257 melanoma, 5.46 µM; in the experiment on UACC-62 melanoma, 3.78 µM. Besides, the TGI in the experiment on DU-145 prostate was 5.38 µM; in the experiment on HCT-116 colon it was 12.7 µM; in the experiment on HL-60(TB) leukemia it was 4.65 µM; with K-562 leukemia it was 9.59 µM; in the experiment with NCI-H226 lung, 5.92 µM; with NCI-H23 lung, 12 µM. In addition, the TGI in the experiment with PC-3 prostate was 16.4 µM; in the experiment with SR leukemia, 1.82 µM; in the experiment with UACC-257 melanoma, 18.7 µM; with UACC-62 melanoma, 15.2 µM.

Turning to `Cc1ccc2nc3sc(=O)sc3nc2c1`, the TGI in the experiment with DU-145 prostate is above 100 µM; in the experiment on HCT-116 colon, 30.9 µM; with HL-60(TB) leukemia it was 44.1 µM; in the experiment with K-562 leukemia, 75.6 µM; in the experiment on NCI-H226 lung it was 27.9 µM; in the experiment on NCI-H23 lung, 42.5 µM. In addition, the TGI was 27.3 µM in the experiment with PC-3 prostate, 80.2 µM with SR leukemia, 32.1 µM in the experiment on UACC-257 melanoma and 32.5 µM with UACC-62 melanoma.

Regarding `Cc1cc(N2CCN(C)CC2)nc(N(CCNc2ccnc3cc(Cl)ccc23)Cc2ccco2)n1`, the GI50 in the experiment on DU-145 prostate was 5.94 µM; in the experiment with HCT-116 colon, 2.6 µM; in the experiment with HL-60(TB) leukemia it was 2.25 µM; with K-562 leukemia, 1.59 µM; in the experiment on NCI-H226 lung, 19.6 µM; with NCI-H23 lung it was 6.26 µM. The GI50 is 3.7 µM in the experiment on PC-3 prostate, 2.09 µM in the experiment with SR leukemia, 2.07 µM in the experiment with UACC-257 melanoma and 2.02 µM with UACC-62 melanoma. Further, the TGI worked out at 19 µM in the experiment with DU-145 prostate; 10.4 µM in the experiment on HCT-116 colon; 5.97 µM with HL-60(TB) leukemia; 4.78 µM with K-562 leukemia; 37.9 µM in the experiment with NCI-H226 lung; 21.4 µM in the experiment on NCI-H23 lung. Also, the TGI is 13.8 µM with PC-3 prostate, 5.23 µM with SR leukemia, 4.25 µM in the experiment with UACC-257 melanoma and 4.01 µM in the experiment on UACC-62 melanoma.

Consider `COc1ccc(C2=NNC(c3cc(Cc4ccc(O)c(C5CC(c6ccc(OC)cc6)=NN5)c4)ccc3O)C2)cc1` (stereo not given), for which the GI50 in the experiment on DU-145 prostate is 29.8 µM; with HCT-116 colon, 4.11 µM; in the experiment on HL-60(TB) leukemia, 23.4 µM; in the experiment with K-562 leukemia it was 7.74 µM; in the experiment on NCI-H226 lung, 6.08 µM; in the experiment with NCI-H23 lung, 5.3 µM. Moreover, the GI50 with PC-3 prostate is 61.4 µM; in the experiment with SR leukemia, 16.4 µM; with UACC-257 melanoma, 25.6 µM; in the experiment with UACC-62 melanoma, 10.6 µM. Moreover, the TGI is above 100 µM in the experiment with DU-145 prostate; 15.9 µM with HCT-116 colon; above 100 µM in the experiment with HL-60(TB) leukemia; above 100 µM with K-562 leukemia; above 100 µM with NCI-H226 lung; above 100 µM with NCI-H23 lung. The TGI is above 100 µM with PC-3 prostate, above 100 µM in the experiment with SR leukemia, above 100 µM in the experiment with UACC-257 melanoma and 99.6 µM in the experiment on UACC-62 melanoma.

Consider `C[C@@H](Oc1cc(-c2cnn(C3CC4(CNC4)C3)c2)cnc1N)c1c(Cl)ccc(F)c1Cl`, for which the GI50 in the experiment on DU-145 prostate is 5.45 µM; in the experiment on HCT-116 colon, 2.09 µM; in the experiment with HL-60(TB) leukemia, 1.59 µM; with K-562 leukemia it was 0.349 µM; in the experiment on NCI-H226 lung it was 6.81 µM; with NCI-H23 lung it was 1.97 µM. Further, the GI50 is 2.64 µM in the experiment on PC-3 prostate, 0.0769 µM with SR leukemia, 1.79 µM in the experiment with UACC-257 melanoma and 3.64 µM in the experiment with UACC-62 melanoma. The TGI is 18.1 µM in the experiment on DU-145 prostate; 8.87 µM with HCT-116 colon; 6.76 µM in the experiment on HL-60(TB) leukemia; 5.43 µM in the experiment with K-562 leukemia; 24.3 µM in the experiment on NCI-H226 lung; 16 µM in the experiment with NCI-H23 lung. Further, the TGI in the experiment on PC-3 prostate came out at 15.6 µM; in the experiment on SR leukemia it was 2.05 µM; with UACC-257 melanoma it was 4.33 µM; in the experiment on UACC-62 melanoma, 13.8 µM.

Consider `O=Cc1c[nH]c2ccc(-c3csc4ccccc34)cc12`, for which the GI50 with DU-145 prostate was 3.18 µM; in the experiment on HCT-116 colon, 3.6 µM; with HL-60(TB) leukemia it was 2.48 µM; in the experiment with K-562 leukemia it was 1.69 µM; with NCI-H226 lung, 3.7 µM; in the experiment on NCI-H23 lung it was 18.2 µM. Further, the GI50 with PC-3 prostate is 3.02 µM; in the experiment on SR leukemia, 1.12 µM; in the experiment with UACC-257 melanoma, 13.2 µM; in the experiment on UACC-62 melanoma it was 3.02 µM. Besides, the TGI with DU-145 prostate was 22.2 µM; in the experiment with HCT-116 colon, above 100 µM; with HL-60(TB) leukemia it was 8.38 µM; with K-562 leukemia, above 100 µM; in the experiment on NCI-H226 lung, above 100 µM; with NCI-H23 lung, above 100 µM. Further, the TGI in the experiment on PC-3 prostate is above 100 µM; in the experiment on SR leukemia it was 10.9 µM; in the experiment on UACC-257 melanoma, above 100 µM; in the experiment with UACC-62 melanoma, 34.6 µM.

As for `COc1cccc(C(C#N)NC23CC4CC(CC(C4)C2)C3)c1` (stereo not given), the TGI in the experiment on DU-145 prostate, in the experiment on HCT-116 colon, in the experiment with HL-60(TB) leukemia, with K-562 leukemia, with NCI-H226 lung and in the experiment with NCI-H23 lung was above 100 µM each time. Further, the TGI in the experiment on PC-3 prostate, with SR leukemia, in the experiment with UACC-257 melanoma and in the experiment with UACC-62 melanoma was above 100 µM each time.
